Reference: patent US6544987B2, “Compounds, compositions, and methods for stimulating neuronal growth and elongation” (Pfizer Inc., priority 1999, dated 2003)
“And” between values parts separate entries of the source, which are not always exact repeats. Equal entries are not always repeated.

Target: T1, FKBP12 (Homo sapiens, UniProt P62942)
Assay: Rotamase inhibition assay (N-succinyl-Ala-Ala-Pro-Phe-p-nitroanilide, chymotrypsin-coupled)
Type: biochemical
Details: Table 1; read-out: Rotamase Ki(app)
Method: In the rotamase inhibition assay, isomerization of an artificial substrate N-succinyl-Ala-Ala-Pro-Phe-p-nitroanilide is followed spectrophotometrically. The assay includes the cis form of the substrate, FKBP12, the compound being tested, and chymotrypsin. Chymotrypsin is able to cleave p-nitroaniline from the trans form of the substrate, but not from the cis form. Release of p-nitroaniline is measured spectrophotometrically. Using this assay, various amounts of the FKBP rotamase-inhibiting compounds of formula (I) were added to cis-N-succinyl-alanine-alanine-proline-phenylalanine-para-nitroaniline (BACHEM, 3132 Kashiwa Street, Torrance, Calif. 90505) in the presence of FKBP12 and chymotrypsin. Spectrophotometric measurements of p-nitroaniline concentrations allowed estimation of the apparent Ki values, which are provided in Table 1 below.

T1 sequence (P62942 whole entry, species assumed): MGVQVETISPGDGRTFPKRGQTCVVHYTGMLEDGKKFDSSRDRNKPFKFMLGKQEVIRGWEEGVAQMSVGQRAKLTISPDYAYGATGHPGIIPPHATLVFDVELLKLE

| SMILES | Ki [nM] |
| --- | --- |
| CCC(C)(C)NS(=O)(=O)N1CCCC[C@H]1C(=O)OC(CCCc1ccccc1)CCCc1ccccc1 [Compound 23, 1-(1,1-Dimethyl-propylsulfamoyl)-piperidine-2S-carboxylic acid 4-phenyl-1-(3-phenyl-propyl)-butyl ester] | 6990 |
| COc1cc(NS(=O)(=O)N2CCCC[C@H]2C(=O)OC(CCCc2ccccc2)CCCc2ccccc2)cc(OC)c1OC [Compound 22, 1-(3,4,5-Trimethoxy-phenylsulfamoyl)-piperidine-2S-carboxylic acid 4-phenyl-1-(3-phenyl-propyl)-butyl ester] | 382 |

The remaining lines, values ahead:

| Ki [nM] | SMILES |
| --- | --- |
| 193 | CCC(C)(C)NS(=O)(=O)N1CCCC[C@H]1C(=O)OCCCCc1ccccc1 [Compound 26, 1-(1,1-Dimethyl-propylsulfamoyl)-piperidine-2S-carboxylic acid 4-phenyl-butyl ester] |
| 1160 | O=C(OCCCCc1ccccc1)[C@@H]1CCCCN1S(=O)(=O)Nc1ccccc1 [Compound 24, 1-Phenylsulfamoyl-piperidine-2S-carboxylic acid 4-phenyl-butyl ester] |

Target: T1, FKBP12
Assay: Affinity for FKBP-12 (Ki), succinyl-Ala-Leu-Pro-Phe-pNA chymotrypsin-coupled assay
Type: biochemical
Parameters: key to FKBP12 inhibition (in Kiapps column): NI: no inhibition; NSI: no significant inhibition
Details: @ 20
Method: In a quartz cuvette, a final 1 mL buffer concentration was reached (50 mM Hepes, 100 mM NaCl, pH 8.0). Within this final reaction volume, 3.5 μL […] FKBP-12 (in 50 mM Hepes, 100 mM NaCl, pH 8.0) and 10 μL test compound in DMSO were added. The reaction was initiated by adding 10 μL chymotrypsin (100 mg/mL in 1 mM HCl) followed by 5 μL (1-20 mM succinyl-Ala-Leu-Pro-Phe-pNA in 240 mM LiCl/TFE).
The absorbance at 390 nm versus time was monitored for up to 400 seconds. Rate constants were determined from the absorbance versus time plots generated.

| FKBP12 inhibition (in Kiapps column) | SMILES |
| --- | --- |
| NSI @ 20 | O=C(O)[C@@H]1CCCN1S(=O)(=O)Nc1cccnc1 [Compound 116, (S)-1-(Pyridin-3-ylsulfamoyl)-pyrrolidine-2-carboxylic acid] |

Same assay, conditions: Table 2; read-out: FKBP12 Kiapps

| SMILES | Ki |
| --- | --- |
| O=C(OCCCCc1ccccc1)[C@@H]1CCCCN1S(=O)(=O)Nc1ccc(N2CCOCC2)nc1 [Compound 94, (S)-1-(6-Morpholin-4-yl-pyridin-3-ylsulfamoyl)-piperidine-2-carboxylic acid 4-phenyl-butyl ester] | 208 nM |
| O=C(OCCCCc1ccccc1)[C@@H]1CCCCN1S(=O)(=O)Nc1ccc(C(F)(F)F)nc1 [Compound 96, (S)-1-(6-Trifluoromethyl-pyridin-3-ylsulfamoyl)-piperidine-2-carboxylic acid 4-phenyl-butyl ester] | 440 nM |
| O=C(OC(COCc1ccccc1)COCc1ccccc1)[C@@H]1CCCCN1S(=O)(=O)Nc1cccnc1 [Compound 105, (S)-1-(Pyridin-3-ylsulfamoyl)-piperidine-2-carboxylic acid 2-benzyloxy-1-benzyloxymethyl-ethyl ester] | 33 nM |
| COc1cccc(NS(=O)(=O)N2CCCC[C@H]2C(=O)OCCCCc2ccccc2)c1 [Compound 98] | 218 nM |
| COc1cc(NS(=O)(=O)N2CCCC[C@H]2C(=O)NCCCCc2ccccc2)cc(OC)c1OC [Compound 59, (S)-1-(3,4,5-Trimethoxy-phenylsulfamoyl)-piperidine-2-carboxylic acid (4-phenyl-butyl)-amide] | 148 nM |
| COc1cc(NS(=O)(=O)N2CCCC[C@H]2C(=O)N[C@H](COCc2cccnc2)C(C)C)cc(OC)c1OC [Compound 112, (S)-1-(3,4,5-Trimethoxy-phenylsulfamoyl)-piperidine-2-carboxylic acid [(S)-2-methyl-1-(pyridin-3-ylmethoxymethyl)-propyl]-amide] | 41 nM |
| Cc1ccc(NS(=O)(=O)N2CCCC[C@H]2C(=O)OC(COCc2ccccc2)COCc2ccccc2)cn1 [Compound 107, (S)-1-(6-Methyl-pyridin-3-ylsulfamoyl)-piperidine-2-carboxylic acid 2-benzyloxy-1-benzyloxymethyl-ethyl ester] | 88 nM |
| O=S(=O)(Nc1ccccc1)N1CCCC[C@H]1c1nnc(Cc2ccccc2)o1 [Compound 76, 2S-(5-Benzyl-[1,3,4]oxadiazol-2-yl)-piperidine-1-sulfonic acid phenylamide] | 1300 nM |
| COc1ccc(N(C)S(=O)(=O)N2CCCC[C@H]2C(=O)OCCCCc2ccccc2)cc1[N+](=O)[O-] [Compound 54, (S)-1-[(4-Methoxy-3-nitro-phenyl)-methyl-sulfamoyl]-piperidine-2-carboxylic acid 4-phenyl-butyl ester] | 26000 nM |
| COc1ccc(NS(=O)(=O)N2CCCC[C@H]2C(=O)OCCCCc2ccccc2)cn1 [Compound 49, 1-(6-methoxy-pyridin-3-ylsulfamoyl)-piperidine-2S-carboxylic acid 4-phenyl-butyl ester] | 80 nM |
| COc1cc(NS(=O)(=O)N2CCCC[C@H]2C(=O)O)cc(OC)c1OC [Compound 39, 1-(3,4,5-Trimethoxy-phenylsulfamoyl)-piperidine-2S-carboxylic acid] | > 100000 nM |
| CN(C)S(=O)(=O)N1CCCC[C@H]1c1nnc(Cc2ccccc2)o1 [Compound 75, 2S-(5-Benzyl-[1,3,4]oxadiazol-2-yl)-piperidine-1-sulfonic acid dimethylamide] | 107000 nM |
| O=C(NCCCc1ccccc1)[C@@H]1CCCN1S(=O)(=O)Nc1cccnc1 [Compound 118, (S)-1-(Pyridin-3-ylsulfamoyl)-pyrrolidine-2-carboxylic acid (3-phenyl-propyl)-amide] | 16900 nM |
| COc1ccc2nc(NS(=O)(=O)N3CCCC[C@H]3C(=O)OCCCCc3ccccc3)sc2c1 [Compound 46, 1-(6-Methoxy-benzothiazol-2-ylsulfamoyl)-piperidine-2S-carboxylic acid 4-phenyl-butyl ester] | 37000 nM |

Continued, values first:

| Ki | SMILES |
| --- | --- |
| 193 nM and 218 nM | CCC(C)(C)NS(=O)(=O)N1CCCC[C@H]1C(=O)OCCCCc1ccccc1 [Compound 26, 1-(1,1-Dimethyl-propylsulfamoyl)-piperidine-2S-carboxylic acid 4-phenyl-butyl ester] |
| 122000 nM | NS(=O)(=O)N1CCCC[C@H]1C(=O)OCc1ccccc1 [Compound 37, 1-sulfamoyl-piperidine-2S-carboxylic acid Benzyl ester] |
| 2800 nM | CCC(C)(C)NS(=O)(=O)N1CCC[C@H]1C(=O)OCc1ccccc1 [Compound 27, 1-(1,1-Dimethyl-propylsulfamoyl)-pyrrolidine-2S-carboxylic acid Benzyl ester] |
| 1160 nM and 508 nM | O=C(OCCCCc1ccccc1)[C@@H]1CCCCN1S(=O)(=O)Nc1ccccc1 [Compound 24, 1-Phenylsulfamoyl-piperidine-2S-carboxylic acid 4-phenyl-butyl ester] |
| 19200 nM | COc1ccc(N(C)S(=O)(=O)N2CCCC[C@H]2C(=O)OCCCCc2ccccc2)cc1 [Compound 43, 1-[(4-methoxy-phenyl)-methyl-sulfamoyl]-piperidine-2S-carboxylic acid 4-phenyl-butyl ester] |
| 2900 nM | COC(OC)c1ccn(S(=O)(=O)N2CCCC[C@H]2C(=O)OCCCCc2ccccc2)n1 [Compound 53, 1-(3-Dimethoxymethyl-pyrazole-1-sulfonyl)-peperidine-2-carboxyic acid 4-phenyl-butyl ester] |
| 1790 nM and 1170 nM | O=C(OCc1ccccc1)[C@@H]1CCCCN1S(=O)(=O)Nc1ccc(N2CCOCC2)nc1 [Compound 86, (S)-1-(6-Morpholin-4-yl-pyridin-3-ylsulfamoyl)-piperidine-2-carboxylic acid Benzyl ester] |
| 73 nM | O=C(OCCCCc1ccccc1)[C@@H]1CCCCN1S(=O)(=O)Nc1cccnc1 [Compound 97, (S)-1-(Pyridin-3-ylsulfamoyl)-piperidine-2-carboxylic acid 4-phenylbutyl ester] |
| 13100 nM | COc1ccc(N(C)S(=O)(=O)N2CCCC[C@H]2C(=O)OCCCCc2ccccc2)cc1N [Compound 55, (S)-1-[(3-Amino-4-methoxy-phenyl)-methyl-sulfamoyl]-piperidine-2-carboxylic acid 4-phenyl-butyl ester] |
| 12000 nM | CN(c1ccccc1)S(=O)(=O)N1CCCC[C@H]1C(=O)OCCCCc1ccccc1 [Compound 44, 1-(Methyl-phenyl-sulfamoyl)-piperidine-2S-carboxylic acid 4-phenyl-butyl ester] |
| 837 nM | C[C@@H]1CN(S(=O)(=O)N2CCCC[C@H]2C(=O)OCc2ccccc2)C[C@H](C)O1 [Compound 88, (S)-1-(cis-2,6-Dimethyl-morpholine-4-sulfonyl)-piperidine-2-carboxylic acid benzyl ester] |
| 6500 nM | O=C(OCCCCc1ccccc1)[C@@H]1CCCCN1S(=O)(=O)Oc1ccccc1 [Compound 13, 1-Phenoxy sulfonyl-piperidine-2S-carboxylic acid 4-phenyl-butyl ester] |
| 678 nM | CCC(C)(C)NS(=O)(=O)N1CCCC[C@H]1C(=O)OCc1ccccc1 [Compound 38, 1-(1,1-Dimethyl-propylsulfamoyl)-piperidine-2S-carboxylic acid Benzyl ester] |
